# Tested on: Plasmopara viticola
# Test: Activity against Peronospora of grapevines caused by Plasmopara viticola (comparative test, protective spray)
# Format: in vivo
# Details: leaves of potted grapevines sprayed to runoff, inoculated next day; infection on undersides of leaves determined visually; untreated 100%; active compound concentration not given
# Method: The active compounds were prepared as a stock solution comprising 25 mg of active compound which was made up to 10 ml using a mixture of acetone and/or DMSO and the emulsifier Uniperol® EL (wetting agent having emulsifying and dispersing action based on ethoxylated alkylphenols) in a volume ratio of solvent/emulsifier of 99/1. The mixture was then made up to 100 ml with water. This stock solution was diluted with the solvent/emulsifier/water mixture described to the concentration of active compounds stated below. Leaves of potted grapevines were sprayed to runoff point with an aqueous suspension having the concentration of active compound stated below. The next day, the undersides of the leaves were inoculated with an aqueous sporangia suspension of Plasmopara viticola. The grapevines were then initially placed in a water vapor-saturated chamber at 24° C. for 48 hours and then in a greenhouse at temperatures between 20 and 30° C. for 5 days. After this time, the plants were again placed into a moist chamber for 16 hours to accelerate sporangiophore eruption. The extent of the development of the infection on the undersides of the leaves was then determined visually.
row,SMILES,Infection in %
1,"CCCCCc1nc2cc(C)nn2c(N)c1CCCCC [Compound I-1, 2-methyl-5,6-dipentylpyrazolo[1,5-a]pyrimidin-7-ylamine]",3%
2,CCCCc1nc2cc(C)nn2c(N)c1CCCC [Compound 17],25%

# Reference: patent US20080125445A1, “5,6-Dialkyl-7-Amino-Azolopyrimidines, Method For Their Production, Their Use For Controlling Pathogenic Fungi and Agents Containing Said Compounds” (BASF Aktiengesellschaft, priority 2005, published 2008)
